Test [1] deals with A549. As to the kind of experiment: Cytotoxicity against human A549 cells assessed as reduction in cell viability after 72 hrs by Alamar blue assay. It counts as functional. To be noted: read-out: LD50 (the source's name). Background: Resazurin is reduced to fluorescent resorufin, in cell work by metabolically active cells.
Test [2] relates to HCT-116. The test is described as follows: Cytotoxicity against human HCT-116 cells assessed as reduction in cell viability after 72 hrs by Alamar blue assay. The format is functional. Particulars: read-out: LD50 (the source's name).
Test [3] deals with DNA topoisomerase 2-alpha (Homo sapiens) (UniProt P11388). As to the kind of experiment: Inhibition of wild type human topoisomerase-2alpha expressed in Saccharomyces cerevisiae JEL1deltatop1 assessed as inhibition of supercoiled DNA relaxation at 100 to 200 uM using negatively supercoiled pBRDNA as substrate incubated for 15 mins in presence of ATP by gel electrophoresis. Particulars: dose microM 100-200, time 15.0 min.

The target is the same in test [4]. As to the kind of experiment: Inhibition of wild type human topoisomerase-2alpha expressed in Saccharomyces cerevisiae JEL1deltatop1 assessed as induction of supercoiled DNA cleavage at 200 uM using negatively supercoiled pBRDNA as substrate incubated for 30 mins by gel electrophoresis.
Test [5] has the same target. As to the kind of experiment: Inhibition of wild type human topoisomerase-2alpha expressed in Saccharomyces cerevisiae JEL1deltatop1 assessed as induction of supercoiled DNA cleavage at 100 to 200 uM using negatively supercoiled pBRDNA as substrate incubated for 30 mins by gel electrophoresis. Particulars: dose microM 100-200, time 30.0 min.
Test [6] relates to HCT-116. As to the kind of experiment: Cell cycle arrest in human HCT-116 cells assessed as decrease in cell population at S phase after 48 hrs by propidium iodide staining based flow cytometry analysis. It counts as functional.
The test system of test [7] is HCT-116. The test is described as follows: Cell cycle arrest in human HCT-116 cells assessed as accumulation at sub-G1 phase after 48 hrs by propidium iodide staining based flow cytometry analysis. It counts as functional.
For test [8], the target named is DNA topoisomerase 2-alpha (Homo sapiens) (UniProt P11388). As to the kind of experiment: Inhibition of wild type human topoisomerase-2alpha expressed in Saccharomyces cerevisiae JEL1deltatop1 assessed as induction of supercoiled DNA cleavage using negatively supercoiled pBRDNA as substrate incubated for 30 mins by gel electrophoresis. Particulars: dose microM 100-200, time 30.0 min.

For test [9], the system named is A549. As to the kind of experiment: Antiproliferative activity against human A549 cells assessed as inhibition of cell proliferation after 48 hrs by MTT assay. It counts as functional. Particulars: read-out: LD50 (the source's name). For orientation: Tetrazolium assays rely on reduction of a dye to a coloured formazan, in cell work by metabolically active cells.

Activity calls are given as the source filed them. No cut-off for these calls is given here.

Sequence of DNA topoisomerase 2-alpha (Homo sapiens) (P11388 whole entry): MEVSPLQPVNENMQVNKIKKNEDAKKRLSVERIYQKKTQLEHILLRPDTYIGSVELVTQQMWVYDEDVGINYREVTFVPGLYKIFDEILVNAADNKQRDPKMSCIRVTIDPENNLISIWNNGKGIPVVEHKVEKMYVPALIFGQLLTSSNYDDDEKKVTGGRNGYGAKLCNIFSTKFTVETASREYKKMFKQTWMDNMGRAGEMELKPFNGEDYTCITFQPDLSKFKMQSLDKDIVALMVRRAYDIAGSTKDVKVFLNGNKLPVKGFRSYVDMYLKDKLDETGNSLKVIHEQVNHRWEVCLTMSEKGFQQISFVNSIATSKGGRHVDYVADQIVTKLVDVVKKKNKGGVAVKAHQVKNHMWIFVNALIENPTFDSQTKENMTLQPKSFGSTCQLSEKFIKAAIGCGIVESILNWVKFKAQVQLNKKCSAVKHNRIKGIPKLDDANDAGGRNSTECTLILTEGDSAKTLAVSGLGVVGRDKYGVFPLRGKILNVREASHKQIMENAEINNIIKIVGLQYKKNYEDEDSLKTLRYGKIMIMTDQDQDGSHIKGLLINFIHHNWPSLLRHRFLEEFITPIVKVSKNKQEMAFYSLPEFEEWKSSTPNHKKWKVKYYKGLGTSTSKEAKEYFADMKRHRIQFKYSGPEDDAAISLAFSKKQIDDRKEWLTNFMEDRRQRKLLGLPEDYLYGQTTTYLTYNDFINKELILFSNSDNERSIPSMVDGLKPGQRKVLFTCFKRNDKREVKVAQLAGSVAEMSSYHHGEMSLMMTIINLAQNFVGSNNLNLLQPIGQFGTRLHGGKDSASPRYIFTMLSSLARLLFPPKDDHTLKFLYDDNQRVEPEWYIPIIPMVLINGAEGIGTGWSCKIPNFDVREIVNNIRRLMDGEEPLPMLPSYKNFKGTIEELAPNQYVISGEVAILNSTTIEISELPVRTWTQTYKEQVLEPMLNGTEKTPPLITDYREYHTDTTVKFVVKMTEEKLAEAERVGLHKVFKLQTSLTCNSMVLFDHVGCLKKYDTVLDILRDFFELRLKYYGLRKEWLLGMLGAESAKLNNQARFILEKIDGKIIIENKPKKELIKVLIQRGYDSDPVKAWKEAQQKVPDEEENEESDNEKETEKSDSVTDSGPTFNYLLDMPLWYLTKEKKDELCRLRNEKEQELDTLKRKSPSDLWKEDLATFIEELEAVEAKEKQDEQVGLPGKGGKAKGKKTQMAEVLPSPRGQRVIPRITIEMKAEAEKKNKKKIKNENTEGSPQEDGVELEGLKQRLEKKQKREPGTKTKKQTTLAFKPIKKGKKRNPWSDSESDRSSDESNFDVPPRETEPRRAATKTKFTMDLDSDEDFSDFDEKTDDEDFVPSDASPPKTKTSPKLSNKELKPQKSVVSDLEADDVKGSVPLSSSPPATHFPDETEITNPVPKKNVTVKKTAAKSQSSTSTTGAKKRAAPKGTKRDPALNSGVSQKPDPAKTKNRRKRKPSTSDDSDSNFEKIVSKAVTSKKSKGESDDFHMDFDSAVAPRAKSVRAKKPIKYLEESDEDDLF

With `COc1cc([C@@H]2c3cc4c(cc3[C@@H](O)[C@H]3COC(=O)[C@H]23)OCO4)c(Cl)c(OC)c1O`, the CC50 in test [1] came to 35 µM; in test [2], 33 µM. In addition, the inhibition result in [3] is “Active”. In test [4], the result was Active.
For the compound `COc1cc([C@@H]2c3cc4c(cc3[C@@H](O[C@@H]3O[C@@H]5CO[C@@H](C)O[C@H]5[C@H](O)[C@H]3O)[C@H]3COC(=O)[C@H]23)OCO4)c(Cl)c(OC)c1O`, the CC50 in test [2] is 120 µM. Moreover, the inhibition entry in test [3] was “Active”. The outcome in [5], in test [6], in test [7] and in test [8] was Active.
For `COc1cc([C@@H]2c3cc4c(cc3[C@@H](O[C@@H]3O[C@@H]5CO[C@@H](C)O[C@H]5[C@H](O)[C@H]3O)[C@H]3COC(=O)[C@H]23)OCO4)cc(OC)c1O` [ETOPOSIDE], the figures for the CC50 in [2] and in [9] were 1.6 µM and 11.8 µM, respectively.
As for `COc1cc([C@@H]2c3cc4c(cc3[C@H](O)[C@H]3COC(=O)[C@H]23)OCO4)c(Cl)c(OC)c1OC`, the inhibition result in [3] is “inactive”.
On the same count and under the same terms, the same measure for `COc1cc([C@@H]2c3cc4c(cc3[C@H](O)[C@H]3COC(=O)[C@H]23)OCO4)cc(OC)c1OC`: “inactive”.
For `COc1cc([C@@H]2c3cc4c(cc3[C@H](O)[C@H]3COC(=O)[C@H]23)OCO4)c(Br)c(OC)c1OC`, in [3], the inhibition entry is “inactive”.
In the case of `COc1c(Cl)c([C@@H]2c3cc4c(cc3[C@H](O)[C@H]3COC(=O)[C@H]23)OCO4)c(Cl)c(OC)c1OC`, the CC50 in test [1] amounted to 17 µM; in test [2], 20 µM. The inhibition result in test [3] is “Active”. Also, the result in [5], in test [6] and in test [7] was Active.

These data come from ChEMBL document CHEMBL4699563, “Synthesis and evaluation of etoposide and podophyllotoxin analogs against topoisomerase IIα and HCT-116 cells” (2020).
